Assay results published in US20220324835A1 (Nurix Therapeutics, Inc., priority 2018, published 2022).

Columns and labels:
Cbl-b [1] = target: T1, Cbl-b (Homo sapiens, UniProt Q13191); experiment: Cbl-b inhibition assay (Cbl-b activity assay, FRET, Biological Example 1; 100 mM NaCl, 60 nM Src kinase); format: biochemical; details: upper bound stated in text lists; read-out: IC50 values in the Cbl-b inhibition assay of Biological Example 1
Method in brief: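 Inhibitor activity is measured as reduced terbium-to-fluorescein FRET between streptavidin-terbium on biotinylated Cbl-b and Bodipy-fluorescein ubiquitin carried by an irreversible UbcH5B-Ub conjugate, binding of which depends on Src phosphorylation of Cbl-b.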

T-cell [2] = experiment: CD25 cell surface staining on T-cells co-stimulated with anti-CD3 and anti-CD28 antibody (Biological Example 2); format: cell-based, human; details: Homo sapiens, T-cell, fold change over baseline, primary human total T-cells, read-out: CD25 staining Anti-CD3/Anti-CD28 stimulation; for fold induction at 0.3 µM: 0.3 μM Cbl-b inhibitor; for fold induction at 1 µM: 1 μM Cbl-b inhibitor; for fold induction at 4 µM: 4 μM Cbl-b inhibitor
Method in brief: (§1)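 T-cells were stimulated with anti-CD3 antibody alone or with anti-CD28 antibody, in the presence or absence of Cbl-b inhibitor. IL-2 secretion or CD25 surface staining was measured, and values expressed as fold over the uninhibited baseline […].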

Cbl-b [3] = target: T1, Cbl-b; experiment: Cbl-b activity assay (Cbl-b inhibition assay), TR-FRET of Cbl-b interaction with UbcH5B-Ub; format: biochemical; details: assay buffer with 100 mM NaCl, 60 nM Src kinase; read-out: Cbl-b activity IC50
Method in brief: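 UbcH5B (C85K) conjugated to N-terminally Bodipy-Fluorescein-labeled ubiquitin served as the fluorescent partner. After compound preincubation, Src kinase (60 nM) with 1 mM ATP and 5 mM MgCl2 (final) was added for 1.5 h, followed by a further 1 h incubation. Some values were obtained with 50 mM NaCl and 30 nM Src.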

Cbl-b (residues 36-427) = Cbl-b (residues 36-427) (Homo sapiens, UniProt Q13191); experiment: Cbl-b binding assay (SPR, Biacore T200); details: 20° C., 1:1 binding model
Chain of Cbl-b (residues 36-427) (Q13191 36-427): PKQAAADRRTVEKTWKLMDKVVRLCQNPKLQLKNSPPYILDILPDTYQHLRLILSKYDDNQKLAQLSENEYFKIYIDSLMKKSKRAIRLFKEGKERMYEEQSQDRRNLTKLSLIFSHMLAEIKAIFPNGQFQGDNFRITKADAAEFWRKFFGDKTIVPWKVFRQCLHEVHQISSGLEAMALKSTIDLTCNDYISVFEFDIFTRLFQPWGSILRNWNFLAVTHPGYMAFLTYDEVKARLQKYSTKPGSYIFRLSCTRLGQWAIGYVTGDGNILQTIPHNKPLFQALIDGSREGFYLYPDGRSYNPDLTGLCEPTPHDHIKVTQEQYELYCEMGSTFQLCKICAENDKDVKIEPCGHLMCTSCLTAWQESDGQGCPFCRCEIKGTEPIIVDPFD
Method in brief: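 Steps: capture protein on NeutrAvidin surface; inject compound dilutions (8 or 10 points from 100 or 50 μM) 50 s; allow 90-180 s dissociation; regenerate 20 s with 0.3 M NaCl. Runs at 20° C in HEPES pH 7.5/100 mM NaCl/2% DMSO; 1:1 fitting.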

T-cell [4] = experiment: IL-2 secretion from T-cells co-stimulated with anti-CD3 and anti-CD28 antibody (Biological Example 2); format: cell-based, human; details: Homo sapiens, T-cell, fold change over baseline, primary human total T-cells, read-out: IL-2 secretion Anti-CD3/Anti-CD28 stimulation; for fold induction at 0.3 µM: 0.3 μM Cbl-b inhibitor; for fold induction at 1 µM: 1 μM Cbl-b inhibitor; for fold induction at 4 µM: 4 μM Cbl-b inhibitor
Method in brief: as §1

T1 sequence (Q13191 36-427): as above

SMILES	IC50 (Cbl-b [1])	fold induction at 0.3 µM (T-cell [2])	fold induction at 1 µM (T-cell [2])	fold induction at 4 µM (T-cell [2])	IC50 (Cbl-b [3])	Kd (Cbl-b (residues 36-427))	fold induction at 0.3 µM (T-cell [4])	fold induction at 1 µM (T-cell [4])	fold induction at 4 µM (T-cell [4])
C[C@H](Sc1nncn1C)c1cccc(NC(=O)c2cc3c(Cl)cccc3[nH]2)c1 [Compound 78, 4-chloro-A-[3-[(LS)-1-[(4-methyl-1,2,4-triazol-3-yl)sulfanyl]ethyl]phenyl]-1H-indole-2-carboxamide]	≤ 500 nM	< 1	1.01 to 1.3	1.01 to 1.3	100 to 300 nM	100 to 300 nM	1.01 to 2.5	1.01 to 2.5	2.51 to 5
C[C@H](Cc1nncn1C1CC1)c1cccc(N2Cc3c(cccc3C(F)(F)F)C2=O)c1 [Compound 265, (R)-2-(3-(1-(4-cyclopropyl-4H-1,2,4-triazol-3-yl)propan-2-yl)phenyl)-4-(trifluoromethyl)isoindolin-1-one]	≤ 1000 nM	1.01 to 1.3	1.01 to 1.3	1.01 to 1.3	301 to 1000 nM	3000 to 10000 nM	< 1	1.01 to 2.5	1.01 to 2.5
C[C@H](Sc1nncn1C)c1ccnc(NC(=O)c2cc(C3CC3)cc(C(F)(F)F)n2)c1 [Compound 104, (S)-4-cyclopropyl-N-(4-(1-((4-methyl-4H-1,2,4-triazol-3-yl)thio)ethyl)pyridin-2-yl)-6-(trifluoromethyl)picolinamide]	≤ 1000 nM	< 1	< 1	1.01 to 1.3	301 to 1000 nM	1000 to 3000 nM	1.01 to 2.5	1.01 to 2.5	1.01 to 2.5
C[C@H](Sc1nncn1C)c1cccc(NC(=O)c2ccc(Cl)c(C(F)(F)F)n2)c1 [Compound 51, (S)-5-chloro-N-(3-(1-((4-methyl-4H-1,2,4-triazol-3-yl)thio)ethyl)phenyl)-6-(trifluoromethyl)picolinamide]	≤ 500 nM	1.01 to 1.3	1.01 to 1.3	1.01 to 1.3	100 to 300 nM	301 to 1000 nM	< 1	< 1	1.01 to 2.5
Cc1cc(C(=O)Nc2cc([C@H](C)Sc3nncn3C)ccn2)nc(C(F)(F)F)c1 [Compound 103, (S)-4-methyl-N-(4-(1-((4-methyl-4H-1,2,4-triazol-3-yl)thio)ethyl)pyridin-2-yl)-6-(trifluoromethyl)picolinamide]	≤ 1000 nM	< 1	< 1	1.01 to 1.3	301 to 1000 nM	1000 to 3000 nM	1.01 to 2.5	1.01 to 2.5	1.01 to 2.5
Cc1nc2cc([C@H](C)Sc3nncn3C)cc(NC(=O)c3cccc(C(F)(F)F)n3)c2o1 [Compound 130a, (S)-N-(2-methyl-5-(1-((4-methyl-4H-1,2,4-triazol-3-yl)thio)ethyl)benzo[d]oxazol-7-yl)-6-(trifluoromethyl)picolinamide]	≤ 1000 nM	1.31 to 1.5	1.51 to 1.75	> 1.76	301 to 1000 nM	301 to 1000 nM	2.51 to 5	5 to 7.5	> 7.5
C[C@H](Cc1nncn1C)c1cccc(NC(=O)c2nc(C(F)(F)F)c[nH]2)c1 [Compound 326, (R)-N-(3-(1-(4-methyl-4H-1,2,4-triazol-3-yl)propan-2-yl)phenyl)-4-(trifluoromethyl)-1H-imidazole-2-carboxamide]	≤ 300 nM	1.01 to 1.3	1.01 to 1.3	1.01 to 1.3	100 to 300 nM	100 to 300 nM	1.01 to 2.5	2.51 to 5	2.51 to 5
C[C@H](Cc1nncn1C)c1cccc(NC(=O)c2cc(C3(O)COC3)cc(C(F)(F)F)n2)c1 [Compound 190, (R)-4-(3-hydroxyoxetan-3-yl)-N-(3-(1-(4-methyl-4H-1,2,4-triazol-3-yl)propan-2-yl)phenyl)-6-(trifluoromethyl)picolinamide]	≤ 500 nM	> 1.76	> 1.76	> 1.76	100 to 300 nM	100 to 300 nM	< 1	1.01 to 2.5	5 to 7.5
C[C@H](Cc1nncn1C)c1cccc(NC(=O)c2cc(C(=O)N3CC[C@](C)(O)C3)ccn2)c1 [Compound 222, 4-((S)-3-hydroxy-3-methylpyrrolidine-1-carbonyl)-N-(3-((R)-1-(4-methyl-4H-1,2,4-triazol-3-yl)propan-2-yl)phenyl)picolinamide]	≤ 1000 nM	1.51 to 1.75	1.31 to 1.5	1.51 to 1.75	301 to 1000 nM	1000 to 3000 nM	< 1	< 1	< 1
C[C@H](Sc1nncn1C)c1cccc(NC(=O)c2cc(C(=O)N3CC(O)C3)ccn2)c1 [Compound 148, (S)-4-(3-hydroxyazetidine-1-carbonyl)-N-(3-(1-((4-methyl-4H-1,2,4-triazol-3-yl)thio)ethyl)phenyl)picolinamide]	≤ 500 nM	< 1	< 1	< 1	301 to 1000 nM	1000 to 3000 nM	< 1	< 1	< 1
C[C@H](Cc1nncn1C)c1cccc(NC(=O)c2cc(S(C)(=O)=O)cc(C3CC3)n2)c1 [Compound 198, 6-cyclopropyl-N-[3-[(1R)-1-methyl-2-(4-methyl-1,2,4-triazol-3-yl)ethyl]phenyl]-4-methylsulfonyl-pyridine-2-carboxamide]	≤ 500 nM	1.01 to 1.3	1.01 to 1.3	< 1	100 to 300 nM	100 to 300 nM	1.01 to 2.5	1.01 to 2.5	1.01 to 2.5
C[C@H](Cc1nncn1C)c1ccnc(N2Cc3c(cccc3C(F)(F)F)C2=O)c1 [Compound 304b, (R)-2-(4-(1-(4-methyl-4H-1,2,4-triazol-3-yl)propan-2-yl)pyridin-2-yl)-4-(trifluoromethyl)isoindolin-1-one]	≤ 500 nM	1.01 to 1.3	1.01 to 1.3	1.31 to 1.5	301 to 1000 nM	1000 to 3000 nM	< 1	< 1	1.01 to 2.5
Cn1cnnc1[C@@H]1CC[C@@H]1c1cccc(N2Cc3c(cccc3C(F)(F)F)C2=O)c1 [Compound 283b, 2-(3-((1S,2R)-2-(4-methyl-4H-1,2,4-triazol-3-yl)cyclobutyl)phenyl)-4-(trifluoromethyl)isoindolin-1-one]	≤ 500 nM	1.01 to 1.3	1.01 to 1.3	1.01 to 1.3	301 to 1000 nM	301 to 1000 nM	5 to 7.5	> 7.5	> 7.5
C[C@H](Sc1nncn1C)c1cccc(NC(=O)c2cc(C(F)(F)F)cc(C(F)(F)F)n2)c1 [Compound 64, (S)-N-(3-(1-((4-methyl-4H-1,2,4-triazol-3-yl)thio)ethyl)phenyl)-4,6-bis(trifluoromethyl)picolinamide]	≤ 1000 nM	< 1	< 1	1.01 to 1.3	301 to 1000 nM	1000 to 3000 nM	< 1	< 1	1.01 to 2.5
C[C@H](Cc1nnc[nH]1)c1cccc(N2Cc3c(cccc3C(F)(F)F)C2=O)c1 [Compound 262, (R)-2-(3-(1-(4H-1,2,4-triazol-3-yl)propan-2-yl)phenyl)-4-(trifluoromethyl)isoindolin-1-one]	≤ 500 nM	1.01 to 1.3	1.31 to 1.5	1.31 to 1.5	301 to 1000 nM	301 to 1000 nM	< 1	< 1	1.01 to 2.5
